Assay results published in PubChem BioAssay (NCI).
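Step 1: Grow cells in 96-well plates. Step 2: Expose to compound for 48 hours at 5 concentrations. Step 3: Interpolate endpoints linearly; if unreached, use highest concentration. GI50 = concentration required for 50% inhibition of growth. TGI is the concentration that stops growth completely.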

How the values were obtained:
Assay in all cases: DTP human tumour cell line panel, 48 h
[1] = system: KM12 colon
[2] = system: SF-295 CNS
[3] = system: SK-OV-3 ovarian
[4] = system: HOP-92 NSCLC
[5] = system: BT-549 breast
[6] = system: SNB-75 CNS
[7] = system: NCI/ADR-RES ovarian
[8] = system: HCC-2998 colon
[9] = system: SK-MEL-28 melanoma
[10] = system: HOP-62 NSCLC
[11] = system: SF-539 CNS
[12] = system: UO-31 renal
[13] = system: SK-MEL-5 melanoma
[14] = system: DU-145 prostate
[15] = system: ACHN renal
[16] = system: U251 CNS
[17] = system: HT29 colon
[18] = system: M14 melanoma
[19] = system: RPMI-8226 leukemia
[20] = system: SF-268 CNS
[21] = system: SW-620 colon
[22] = system: LOX IMVI melanoma
[23] = system: TK-10 renal
[24] = system: RXF 393 renal
[25] = system: EKVX NSCLC
[26] = system: COLO 205 colon
[27] = system: MDA-MB-231 breast
[28] = system: MCF7 breast
[29] = system: SR leukemia
[30] = system: SK-MEL-2 melanoma
[31] = system: MDA-MB-435
[32] = system: UACC-257 melanoma
[33] = system: MOLT-4 leukemia
[34] = system: HCT-116 colon
[35] = system: NCI-H522 lung
[36] = system: NCI-H23 lung
[37] = system: HCT-15 colon
[38] = system: NCI-H460 lung
[39] = system: NCI-H226 lung
[40] = system: OVCAR-4 ovarian
[41] = system: T-47D breast
[42] = system: CCRF-CEM leukemia
[43] = system: HS 578T breast
[44] = system: OVCAR-3 ovarian
[45] = system: A549 NSCLC
[46] = system: UACC-62 melanoma
[47] = system: A498 renal
[48] = system: 786-0 renal
[49] = system: SN12C renal
[50] = system: OVCAR-5 ovarian
[51] = system: SNB-19 CNS
[52] = system: CAKI-1 renal
[53] = system: HL-60(TB) leukemia
[54] = system: OVCAR-8 ovarian
[55] = system: IGROV1 ovarian
[56] = system: K-562 leukemia
[57] = system: PC-3 prostate

Clc1nccc2c(-c3csc(-c4c[nH]c5ccc(Br)cc45)n3)c[nH]c12
GI50 [1]: 2.15 µM | TGI [1]: 5.7 µM | GI50 [2]: 2.48 µM | TGI [2]: 5.61 µM | GI50 [3]: 2.78 µM | TGI [3]: 8.27 µM | GI50 [4]: 2.43 µM | TGI [4]: 6.81 µM | GI50 [5]: 4.7 µM | TGI [5]: 24.4 µM | GI50 [6]: 2.37 µM | TGI [6]: 10.9 µM | GI50 [7]: 2.71 µM | TGI [7]: 10.7 µM | GI50 [8]: 2.22 µM | TGI [8]: 4.4 µM | GI50 [9]: 1.85 µM | TGI [9]: 4.16 µM | GI50 [10]: 2.11 µM | TGI [10]: 7.24 µM | GI50 [11]: 1.87 µM | TGI [11]: 6.14 µM | GI50 [12]: 0.932 µM | TGI [12]: 11.5 µM | GI50 [13]: 2.61 µM | TGI [13]: 6.42 µM | GI50 [14]: 1.76 µM | TGI [14]: 14 µM | GI50 [15]: 2.02 µM | TGI [15]: 12.6 µM | GI50 [16]: 2.05 µM | TGI [16]: 5.02 µM | GI50 [17]: 2.66 µM | TGI [17]: 8.22 µM | GI50 [18]: 2.22 µM | TGI [18]: 5.62 µM | GI50 [19]: 4.03 µM | TGI [19]: 39 µM | GI50 [20]: 4.06 µM | TGI [20]: 18 µM | GI50 [21]: 1.92 µM | TGI [21]: 3.63 µM | GI50 [22]: 1.63 µM | TGI [22]: 3.25 µM | GI50 [23]: 4.16 µM | TGI [23]: 13.4 µM | GI50 [24]: 1.48 µM | TGI [24]: 3.43 µM | GI50 [25]: 3.11 µM | TGI [25]: 12.4 µM | GI50 [26]: 1.8 µM | TGI [26]: 5.61 µM | GI50 [27]: 1.68 µM | TGI [27]: 4.62 µM | GI50 [28]: 2.2 µM | TGI [28]: 11.6 µM | GI50 [29]: 1.27 µM | TGI [29]: > 100 µM | GI50 [30]: 4.09 µM | TGI [30]: 16.4 µM | GI50 [31]: 3.43 µM | TGI [31]: 13 µM | GI50 [32]: 2.68 µM | TGI [32]: 4.88 µM | GI50 [33]: 3.02 µM | TGI [33]: 13.9 µM | GI50 [34]: 2.35 µM | TGI [34]: 10.5 µM | GI50 [35]: 2.28 µM | TGI [35]: 6.86 µM | GI50 [36]: 2.42 µM | TGI [36]: 8.57 µM | GI50 [37]: 1.4 µM | TGI [37]: 3.33 µM | GI50 [38]: 2.16 µM | TGI [38]: 4.58 µM | GI50 [39]: 2.4 µM | TGI [39]: 13.8 µM | GI50 [40]: 3.25 µM | TGI [40]: 15.9 µM | GI50 [41]: 3.12 µM | TGI [41]: 18 µM | GI50 [42]: 3.16 µM | TGI [42]: 20.9 µM | GI50 [43]: 3.7 µM | TGI [43]: 17.8 µM | GI50 [44]: 3.45 µM | TGI [44]: 15 µM | GI50 [45]: 3.83 µM | TGI [45]: 12.8 µM | GI50 [46]: 2.19 µM | TGI [46]: 4.84 µM | GI50 [47]: 1.56 µM | TGI [47]: 4.84 µM | GI50 [48]: 1.37 µM | TGI [48]: 2.93 µM | GI50 [49]: 3.35 µM | TGI [49]: 14.4 µM | GI50 [50]: 3.14 µM | TGI [50]: 9.88 µM | GI50 [51]: 3.25 µM | TGI [51]: 11.6 µM | GI50 [52]: 1.96 µM | TGI [52]: 8.04 µM | GI50 [53]: 2.64 µM | TGI [53]: 14.1 µM | GI50 [54]: 3.65 µM | TGI [54]: 16.2 µM | GI50 [55]: 2.51 µM | TGI [55]: 15.4 µM | GI50 [56]: 2.73 µM | TGI [56]: 9.44 µM | GI50 [57]: 3.86 µM | TGI [57]: 14 µM
